The text below walks through data of patent publication US20150284362A1, “CARBAZOLE-CONTAINING AMIDES, CARBAMATES, AND UREAS AS CRYPTOCHROME MODULATORS” (ReSet Therapeutics, Inc., priority 2014, published 2015).

For one series, the system named is db/db mice. The experiment in a line: Single dose at peak or nadir of clock gene expression, OGTT in db/db mouse model of type II diabetes. The class given is in vivo. Particulars: single dose 50 mg/kg PO at peak (ZT0) of Cry1 and Bmal1 expression. The text has this:
Mice were split into two study arms, to be dosed at either the peak or nadir of Cry1 and Bmal1 gene expression. […] Mice dosed at ZT10 were fasted beginning at 8:30 am in the same manner.
Significance was accepted when p<0.05.

Series [1] can be described thus: Pharmacokinetic analysis in ICR mice (plasma and liver). The class given is in vivo. Particulars: male, plasma, po, mouse, 50 mg/kg P.O., Table 4, read-out: Total Plasma AUC, AUC (0-last). The procedure:
Male ICR mice (weighing 30-40 g, Charles River Laboratories) were used for the experiment with n=3 mice for each experimental group (27 mice total for the study). […] Blood and liver tissue were collected at the following time points after administration: 15, 30, 60, 90 minutes, 3, 6, 12 and 24 hours. A control group of animals (TO) was also sampled. Animals were euthanized with CO2 and the blood collected from the heart using cardiac puncture, transferred to an EDTA tube, and then centrifuged at 5400 rpm for 5 minutes at 4° C. The resultant plasma was frozen using dry ice and then stored at −80° C. until ready for assay. Liver tissue was removed from each animal, 0.5 g was collected in an eppendorff, frozen and submitted for pharmacokinetic measurement.

For series [2], the system named is core clock gene mRNAs in liver. The series is described as follows: 24 hour gene expression study, liver mRNA by RT-qPCR, Balb/c mice. The class given is in vivo, mouse. The note with it: 50 mg/kg PO BID, 7 doses. The procedure:
E.Z.N.A.® HP Total RNA Isolation Kits (R6812-01 and the protocol described in the Manual, Revised 2010) were utilized to prepare and isolate RNA from the liver samples. To prepare the RNA samples, 10-30 mg of sample was removed from RNA-Later and placed in a 1.5 ml microfuge tube. GTC lysis buffer (700 μl) was added to the tissue, which was homogenized with a rotor-stator homogenizer (e.g. Tissue-Tearor, Model #985370 BioSpec Products with 4.5 mm probe, Cat. #985370-04), and then centrifuged at full speed (≧13,000×g) for 5 minutes. The cleared supernatant was transferred by pipetting to a DNA Clearance Column Pre-inserted in a 2 mL Collection Tube. The assembled column was centrifuged at 13,000×g for 1 minute, and the flow-through was saved. An equal volume (700 μl) of 70% ethanol was added to the lysate and mixed. The sample was then applied to a HiBind RNA spin column placed into a 2 ml collection tube, which was centrifuged at 10,000×g for 60 seconds at room temperature. RNA Wash Buffer I (250 μl) was added by pipetting directly onto a new HiBind RNA column inserted in a 2 ml collection tube. The assembled column was centrifuged at 10,000×g for 60 seconds. The RNA column was placed into a new 2 ml collection tube. DNase I stock solution is pipetted (75 μl) directly onto the surface of the HiBind RNA resin in each column (Using DNAse Digestion with RNase Free DNase Set (E1091): for each HiBind RNA column, the DNase I stock solution was prepared as followed: E.Z.N.A.® DNase I Digestion Buffer 73.5 μl, RNase Free DNase I (20 Kunitz/μl) 1.5 μl=Total Volume 75 μl.). The column with bound RNA was incubated at room temperature (25-30° C.) for 15 minutes. RNA Wash Buffer I (500 μl) was added to the column and placed on a bench top for 2 minutes. After centrifuging at 10,000×g for 60 seconds, discarding the flow-through, 500 μl of RNA Wash Buffer II was added and centrifuged at 10,000×g for 60 seconds. Another 500 μl of RNA Wash Buffer II was added and the column assembly was centrifuged at 10,000×g for 60 seconds. The column was centrifuged for 2 minutes at maximum speed to completely dry the HiBind matrix. […]
RediPlate 96 RiboGreen RNA Quantification Kit (Invitrogen) RediPlate standard curve was prepared by transferring 20 μl reconstituted RNA standard to a RediPlate well reconstituted in 180 μl RediPlate TE buffer. […] After transferring 5 μl to RediPlate well reconstituted in 195 μl TE buffer and incubating 10 min. at RT, Fluorescence Intensity of wells with standards and samples were read in a Tecan M200 with Excitation set at 480 nm and Emission set at 520 nm with the gain set to ˜70%. […] A standard curve was generated in GraphPad Prism and sample readings (unknowns) are interpolated via linear regression analysis, and the RNA sample concentrations were calculated. […]
Background: In qPCR the cycle at which signal appears reflects the starting amount.

For the compound `O=C1NCCN1CC(O)Cn1c2ccc(F)cc2c2cc(F)ccc21` (stereo not drawn) [Compound 72, 1-(3-(3,6-difluoro-9H-carbazol-9-yl)-2-hydroxypropyl)imidazolidin-2-one], the “effect on OGTT measurement” value in the series with db/db mice was “apparent effect”. Also, in series [1], the AUC(0-t) came to 4160 ng·h/mL. For the same compound, the “Bmal1 mRNA in liver” value in series [2] (at ZT8 and 32 hours after ZT0 vs vehicle) is on record as “substantially increased”. For the same compound, the “Per2 mRNA in liver” value in series [2] (over 24 hours vs vehicle) is “suppressed”. Also, in series [2] (vs vehicle), the “Cry1 mRNA in liver” value was “suppressed during its peak of expression during the dark period” and the “Cry2 mRNA in liver (daytime peak)” value is “strongly attenuated”.
